Experimental data from ChEMBL document CHEMBL3745641, “Discovery and Structure-Guided Optimization of Diarylmethanesulfonamide Disrupters of Glucokinase-Glucokinase Regulatory Protein (GK-GKRP) Binding: Strategic Use of a N → S (nN → σ*S-X) Interaction for Conformational Constraint” (J Med Chem, 2015).

What was measured:
[1] = Intrinsic clearance in rat liver microsomes after 30 mins; format: ADME; conditions: read-out: CLH
[2] = Apparent permeability from apical to basolateral side in pig LLC-PK1 cells; format: ADME, cell-based, Sus scrofa
[3] = biological target: T1, Glucokinase regulatory protein (Mus musculus, UniProt Q91X44); test: Inhibition of glucokinase-GKRP binding interaction in mouse hepatocytes assessed as induction of glucokinase translocation; format: cell-based, Hepatocyte
T1 sequence (Q91X44 whole entry): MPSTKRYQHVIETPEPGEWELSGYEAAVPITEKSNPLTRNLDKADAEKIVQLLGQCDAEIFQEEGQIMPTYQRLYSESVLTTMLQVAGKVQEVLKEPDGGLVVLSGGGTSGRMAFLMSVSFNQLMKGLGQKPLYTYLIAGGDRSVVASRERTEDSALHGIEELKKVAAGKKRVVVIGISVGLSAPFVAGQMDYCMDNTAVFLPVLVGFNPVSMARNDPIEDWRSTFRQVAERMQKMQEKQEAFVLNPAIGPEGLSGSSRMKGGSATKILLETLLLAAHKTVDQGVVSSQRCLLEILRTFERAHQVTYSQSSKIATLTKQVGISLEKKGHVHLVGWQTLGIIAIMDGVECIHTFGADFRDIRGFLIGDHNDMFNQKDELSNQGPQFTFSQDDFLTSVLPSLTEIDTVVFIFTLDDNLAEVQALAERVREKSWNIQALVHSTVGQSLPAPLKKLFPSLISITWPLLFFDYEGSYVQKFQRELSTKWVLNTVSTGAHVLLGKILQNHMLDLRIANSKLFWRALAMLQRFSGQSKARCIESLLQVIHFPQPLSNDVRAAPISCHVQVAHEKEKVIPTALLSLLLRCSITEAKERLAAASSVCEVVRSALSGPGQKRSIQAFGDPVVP

[4] = Plasma concentration in Sprague-Dawley rat at 10 mg/kg, po qd after 6 hrs; format: ADME, organism-based
[5] = Plasma concentration in Sprague-Dawley rat at 100 mg/kg, po qd after 6 hrs; format: ADME, organism-based
[6] = Plasma protein binding in rat by rapid equilibrium dialysis method; format: ADME, cell-free; conditions: read-out: PPB
[7] = Clearance in Sprague-Dawley rat at 2 mg/kg, iv; format: ADME, organism-based; conditions: in vivo
[8] = Volume of distribution at steady state in Sprague-Dawley rat at 2 mg/kg, iv; format: ADME, organism-based; conditions: in vivo, read-out: Vdss
[9] = Half life in Sprague-Dawley rat at 2 mg/kg, iv; format: ADME, organism-based; conditions: in vivo
[10] = Cmax in Sprague-Dawley rat at 10 mg/kg, po; format: ADME, organism-based; design: dose 10 mg/kg, route oral; conditions: in vivo
[11] = Tmax in Sprague-Dawley rat at 10 mg/kg, po; format: ADME, organism-based; conditions: in vivo
[12] = Oral bioavailability in Sprague-Dawley rat at 10 mg/kg; format: ADME, organism-based; conditions: in vivo
Plasma = test: Drug uptake in po dosed Sprague-Dawley rat plasma administered qd measured after 6 hrs; format: ADME, organism-based; conditions: in vivo
[13] = Plasma concentration in Sprague-Dawley rat at 10 mg/kg, po qd at 24 hrs; format: ADME, organism-based
[14] = Plasma concentration in Sprague-Dawley rat at 100 mg/kg, po qd at 24 hrs; format: ADME, organism-based
[15] = Drug uptake in db/db mouse blood at 10 mg/kg, po qd after 6 hrs; format: ADME, organism-based; conditions: whole blood, read-out: Drug uptake
[16] = Drug uptake in db/db mouse blood at 30 mg/kg, po qd after 6 hrs; format: ADME, organism-based; conditions: whole blood, read-out: Drug uptake
[17] = Drug uptake in db/db mouse blood at 100 mg/kg, po qd after 6 hrs; format: ADME, organism-based; conditions: whole blood, read-out: Drug uptake
Blood = test: Drug uptake in po dosed db/db mouse blood administered qd measured after 6 hrs; format: ADME, organism-based; conditions: in vivo
Hexokinase-4 [18] = biological target: T2, Hexokinase-4 (Homo sapiens, UniProt P35557); test: Binding affinity to human glucokinase by surface plasmon resonance analysis
T2 sequence (P35557 whole entry): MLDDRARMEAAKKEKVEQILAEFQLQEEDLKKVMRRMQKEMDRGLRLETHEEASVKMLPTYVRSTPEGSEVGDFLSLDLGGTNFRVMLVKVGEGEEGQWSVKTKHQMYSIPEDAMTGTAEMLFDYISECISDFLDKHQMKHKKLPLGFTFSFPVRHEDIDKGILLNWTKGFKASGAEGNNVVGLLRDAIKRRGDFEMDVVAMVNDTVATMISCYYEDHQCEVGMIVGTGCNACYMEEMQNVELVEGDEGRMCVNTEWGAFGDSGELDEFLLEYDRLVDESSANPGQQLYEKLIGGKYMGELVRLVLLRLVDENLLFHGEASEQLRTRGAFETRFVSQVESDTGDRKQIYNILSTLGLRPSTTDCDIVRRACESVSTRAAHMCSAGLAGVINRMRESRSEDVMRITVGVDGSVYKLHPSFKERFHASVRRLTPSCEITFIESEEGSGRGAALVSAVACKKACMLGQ

Mus musculus [19] = test: Antidiabetic activity in db/db mouse assessed as reduction in blood glucose level at 100 mg/kg, po qd after 3 hrs relative to control; format: functional; design: scale not given: the % may be the effect or the level left
Mus musculus [20] = test: Antidiabetic activity in db/db mouse assessed as reduction in blood glucose level at 100 mg/kg, po qd after 6 hrs relative to control; format: functional; design: scale not given: the % may be the effect or the level left
[21] = Drug uptake in db/db mouse blood at 100 mg/kg, po qd after 3 hrs; format: ADME, organism-based; conditions: whole blood, read-out: Drug uptake
Hexokinase-4 [22] = biological target: T2, Hexokinase-4; test: Effect on human glucokinase activity after 60 mins by luciferase-based luminescence assay in absence of human GKRP

Row | Structure (SMILES) | microsomal CLint [1] [µL/min/mg] | Papp A→B [2] [×10⁻⁶ cm/s] | EC50 [3] [µM] | other results
1 | CC(C)(O)c1ccnc(-c2cccc3cc([C@H](NS(=O)(=O)C4CC4)c4cc(N)ncc4Cl)sc23)c1 | 67 | 19 |  | 
2 | COc1ccc(S(=O)(=O)N[C@@H](c2cc3ccccc3s2)c2ccccc2Cl)cc1 | > 399 |  | > 12.5 | 
3 | C[C@@](O)(c1ccnc(-c2cccc3cc([C@H](NS(=O)(=O)C4CC4)c4ccccc4Cl)sc23)c1)C(F)(F)F | < 14 | < 1.8 |  | 
4 | O=S(=O)(N[C@H](c1ccccc1)c1cc2ccccc2o1)c1ccc2c(c1)OCCCO2 | > 399 |  |  | 
5 | O=S(=O)(N[C@@H](c1cc2ccccc2s1)c1ccccc1Cl)c1ccc2c(c1)OCC(F)(F)CO2 | > 399 |  | > 12.5 | 
6 | C[C@@](O)(c1cccc(-c2cccc3cc([C@H](NS(=O)(=O)C4CC4)c4ccccc4Cl)sc23)c1)C(F)(F)F | < 14 |  |  | 
7 | O=S(=O)(N[C@@H](c1nc2cccnc2s1)c1ccccc1Cl)c1ccc2c(c1)OCCCO2 | > 399 |  | 3.3 | 
8 | O=S(=O)(N[C@@H](c1cc2ccccc2s1)c1ccccc1Cl)c1ccc2c(c1)OCCO2 | > 399 |  | > 12.5 | 
9 | CC(C)(O)c1ccnc(-c2cccc3cc([C@H](NS(=O)(=O)C4CC4)c4nc(N)ncc4Cl)sc23)c1 | 28 | 19 |  | concentration at 6 h [4]: 2900 nM; concentration at 6 h [5]: 23000 nM; fraction unbound [6]: 0.01; clearance [7]: 4.67 mL/min/kg; Vd [8]: 1.3 L/kg; half-life [9]: 3 h; Cmax [10]: 1900 nM; Tmax [11]: 4.7 h; bioavailability [12]: 25%; Drug uptake (Plasma): Dose-dependent effect; concentration at 24 h [13]: 200 nM; concentration at 24 h [14]: 210 nM; concentration at 6 h [15]: 1200 nM; concentration at 6 h [16]: 4100 nM; concentration at 6 h [17]: 19000 nM; Drug uptake (Blood): Dose-dependent effect
10 | CC(C)(O)c1ccnc(-c2cccc3cc([C@H](NS(=O)(=O)C4CC4)c4nc(N)c(F)cc4Cl)sc23)c1 | 28 | 7.8 |  | 
11 | O=S(=O)(N[C@@H](c1cc2ccccc2s1)c1ccccc1Cl)C1CC1 | > 399 |  | > 12.5 | 
12 | O=S(=O)(N[C@@H](c1cc2ccccc2s1)c1ccccc1Cl)c1ccc2c(c1)OCCCO2 | > 399 |  |  | Kd (Hexokinase-4 [18]): > 10 µM
13 | O=S(=O)(N[C@@H](c1cc2ccccc2s1)c1ccccc1Cl)c1ccc2c(c1)OCC(F)CO2 (mixture of isomers) | > 399 |  | 4.1 | 
14 | CC(C)(O)c1ccnc(-c2cccc3cc([C@H](NS(=O)(=O)C4CC4)c4c(Cl)cnc(N)c4F)sc23)c1 | 26 | 16 |  | fraction unbound [6]: 0.01; clearance [7]: 6 mL/min/kg; Vd [8]: 1.6 L/kg; half-life [9]: 3.1 h; Cmax [10]: 2800 nM; Tmax [11]: 3.3 h; bioavailability [12]: 46%; Drug uptake (Plasma): Dose-dependent effect; concentration at 24 h [13]: 220 nM; concentration at 24 h [14]: 6300 nM; concentration at 6 h [17]: 21000 nM; Activity (Mus musculus [19]): 45%; Activity (Mus musculus [20]): 33%; concentration at 3 h [21]: 25000 nM
15 | CC(C)(O)c1ccnc(-c2cccc3cc([C@H](NS(=O)(=O)C4CC4)c4nc(N)ccc4Cl)sc23)c1 | 130 | 11 |  | 
16 | C[C@](O)(c1cccc(-c2cccc3cc([C@H](NS(=O)(=O)C4CC4)c4ccccc4Cl)sc23)c1)C(F)(F)F | < 14 |  |  | 
17 | O=S(=O)(N[C@@H](c1cc2ccccc2s1)c1ccccc1Cl)c1ccc2c(c1)OCO2 | > 399 |  | > 12.5 | 
18 | CC(C)(O)c1ccnc(-c2cccc3cc([C@H](NS(=O)(=O)C4CC4)c4ccccc4Cl)sc23)c1 | 34 | 7.5 |  | 
19 | O=S(=O)(N[C@@H](c1cc2ccccc2s1)c1ccccc1Cl)c1ccccc1 | > 399 |  | > 12.5 | 
20 | O=S(=O)(N[C@@H](c1cc2ccccc2o1)c1ccccc1Cl)c1ccc2c(c1)OCCCO2 | > 399 |  | 6.3 | 
21 | C[C@](O)(c1ccnc(-c2cccc3cc([C@H](NS(=O)(=O)C4CC4)c4ccccc4Cl)sc23)c1)C(F)(F)F | < 14 | 2.4 |  | 
22 | O=S(=O)(N[C@@H](c1cc2ccccc2s1)c1ccccc1Cl)c1ccc2c(c1)OCC(O)CO2 (mixture of isomers) | 304 |  | 4.3 | 
23 | O=S(=O)(NC(c1ccccc1)c1cc2ccccc2o1)c1ccc2c(c1)OCCCO2 (stereo not given) |  |  |  | EC50 (Hexokinase-4 [22]): > 100 µM; Kd (Hexokinase-4 [18]): > 20 µM
24 | CC(C)(O)c1ccnc(-c2cccc3cc([C@H](NS(=O)(=O)C4CC4)c4c(F)cccc4Cl)sc23)c1 | 18 | 9.5 |  | 
